Results published in PubChem BioAssay AID1259407 (Chemical Carcinogenesis Research Information System (CCRIS), 2018).
Activity calls are given as the source filed them. How the calls were made is not given here.

System: CCRIS mutagenicity, Ames/micronucleus/aberration tests
Assay: CCRIS mutagenicity studies

Structure (SMILES): Cc1ccc2cc3c(ccc4ccccc43)c3c2c1CC3
- mutagenic call (End Point: In vivo mutagenicity, Test System: Lung, Species: Rat, Strain/Sex: Big Blue/male, Route: Intraperitoneal): active; positive (11-fold increase in mutant frequency and an increase in transversion t
- mutagenic call (Test System: AMES SALMONELLA TYPHIMURIUM, Strain/Indicator: TA98, Metabolic Activation: RAT, BLADDER, S-9, PCB, Method: FLUCTUATION TEST): inactive; negative
- mutagenic call (Test System: AMES SALMONELLA TYPHIMURIUM, Strain/Indicator: TA98, Metabolic Activation: RAT, LIVER, S-9, PHENOBARBITAL, Method: STANDARD PLATE): active; positive
- mutagenic call (Test System: AMES SALMONELLA TYPHIMURIUM, Strain/Indicator: TA100, Metabolic Activation: MOUSE, LIVER, MICROSOMES, BENZO[E]PYRENE AND TCDD, Method: STANDARD PLATE): active; positive
- mutagenic call (Test System: AMES SALMONELLA TYPHIMURIUM, Strain/Indicator: TA100, Metabolic Activation: RAT, BLADDER, S-9, PCB, Method: FLUCTUATION TEST): active; positive
- mutagenic call (Test System: AMES SALMONELLA TYPHIMURIUM, Strain/Indicator: TA100, Metabolic Activation: RAT, LIVER, S-9, AROCLOR 1254, Method: STANDARD PLATE): active; positive
- mutagenic call (Test System: AMES SALMONELLA TYPHIMURIUM, Strain/Indicator: TA1535, Metabolic Activation: RAT, LIVER, S-9, AROCLOR 1254, Method: STANDARD PLATE): active; positive
- mutagenic call (Test System: AMES SALMONELLA TYPHIMURIUM, Strain/Indicator: TA1537, Metabolic Activation: RAT, LIVER, S-9, AROCLOR 1254, Method: STANDARD PLATE): active; positive
- mutagenic call (Test System: AMES SALMONELLA TYPHIMURIUM, Strain/Indicator: TA1538, Metabolic Activation: MOUSE, LIVER, S-9, PHENOBARBITAL, Method: PREINCUBATION): active; positive
- mutagenic call (Test System: AMES SALMONELLA TYPHIMURIUM, Strain/Indicator: TA1538, Metabolic Activation: RAT, LIVER, S-9, AROCLOR 1254, Method: STANDARD PLATE): active; positive
- mutagenic call (Test System: AMES SALMONELLA TYPHIMURIUM, Strain/Indicator: TA1538, Metabolic Activation: RAT, LIVER, S-9, PHENOBARBITAL, Method: STANDARD PLATE): active; positive
- mutagenic call (Test System: Ames Salmonella typhimurium, Strain/Indicator: TA98, Metabolic Activation: None, Method: Standard plate): active; positive (animals administered an onion (1% or 5%) diet for 1 month before the m
- mutagenic call (Test System: Ames Salmonella typhimurium, Strain/Indicator: TA98, Metabolic Activation: S-9, Method: Standard plate): active; positive (animals administered an onion (1% or 5%) diet for 1 month before the m
- mutagenic call (Test System: Ames Salmonella typhimurium, Strain/Indicator: TA100, Metabolic Activation: None, Method: Standard plate): active; positive (animals administered an onion (1% or 5%) diet for 1 month before the m
- mutagenic call (Test System: Ames Salmonella typhimurium, Strain/Indicator: TA100, Metabolic Activation: S-9, Method: Standard plate): active; positive (animals administered an onion (1% or 5%) diet for 1 month before the m
- mutagenic call (Test System: CHINESE HAMSTER OVARY, Strain/Indicator: CHO-K1-BH4 (HGPRT), Metabolic Activation: RAT, LIVER, S-9, AROCLOR, Method: SUSPENSION/PLATE): active; positive
- mutagenic call (Test System: CHINESE HAMSTER V-79, Strain/Indicator: V-79/6-THIOGUANINE, Metabolic Activation: RAT, LIVER, S-9, PHENOBARBITAL, Method: STANDARD PLATE): active; positive
- mutagenic call (Test System: CHINESE HAMSTER V-79, Strain/Indicator: V-79/8-AZAGUANINE, Metabolic Activation: CELL-MEDIATED, Method: STANDARD PLATE): active; positive
- mutagenic call (Test System: E. COLI, Strain/Indicator: WP2 UVRA, Metabolic Activation: HAMSTER, LIVER, S-9, AROCLOR 1254, Method: STANDARD PLATE): inactive; negative
- mutagenic call (Test System: E. COLI, Strain/Indicator: WP2 UVRA, Metabolic Activation: HAMSTER, LIVER, S-9, Method: STANDARD PLATE): inactive; negative
- mutagenic call (Test System: E. COLI, Strain/Indicator: WP2 UVRA, Metabolic Activation: MOUSE, LIVER, S-9, AROCLOR 1254, Method: STANDARD PLATE): inactive; negative
- mutagenic call (Test System: E. COLI, Strain/Indicator: WP2 UVRA, Metabolic Activation: MOUSE, LIVER, S-9, Method: STANDARD PLATE): inactive; negative
- mutagenic call (Test System: E. COLI, Strain/Indicator: WP2 UVRA, Metabolic Activation: NONE, Method: STANDARD PLATE): inactive; negative
- mutagenic call (Test System: E. COLI, Strain/Indicator: WP2 UVRA, Metabolic Activation: RAT, LIVER, S-9, AROCLOR 1254, Method: STANDARD PLATE): inactive; negative
- mutagenic call (Test System: E. COLI, Strain/Indicator: WP2 UVRA, Metabolic Activation: RAT, LIVER, S-9, Method: STANDARD PLATE): inactive; negative
- mutagenic call (Test System: UDS HUMAN FIBROBLASTS, Strain/Indicator: THY INCORP (NON-S-PHASE), Metabolic Activation: NONE, Method: LIQUID SCINTILLATION COUNTING): active; positive
- mutagenic call (Test System: UDS RODENT HEPATOCYTES, Strain/Indicator: THY INCORP (NON-S-PHASE), Method: LIQUID SCINTILLATION COUNTING): active; positive
- mutagenic call (Test System: UDS RODENT PRIMARY CELLS, Strain/Indicator: THY INCORP (NON-S-PHASE), Metabolic Activation: NONE, Method: AUTORADIOGRAPHY): active; positive

Structure (SMILES): Nc1cc(Cl)c(Cl)cc1Cl
- mutagenic call (Test System: UDS RODENT HEPATOCYTES, Strain/Indicator: THY INCORP (NON-S-PHASE), Metabolic Activation: NONE, Method: AUTORADIOGRAPHY): inactive; negative

Structure (SMILES): C=CC(Cl)CCl (stereo not drawn)
- mutagenic call (Test System: AMES SALMONELLA TYPHIMURIUM, Strain/Indicator: TA102, Metabolic Activation: RAT LIVER S-9, PHENOBARBITAL AND 5,6-BENZOFLAVONE, Method: STANDARD PLATE): inactive; negative
- mutagenic call (Test System: AMES SALMONELLA TYPHIMURIUM, Strain/Indicator: TA2638, Metabolic Activation: RAT LIVER S-9, PHENOBARBITAL AND 5,6-BENZOFLAVONE, Method: STANDARD PLATE): inactive; negative
- mutagenic call (Test System: E. COLI, Strain/Indicator: WP2 (PKM101), Metabolic Activation: RAT LIVER S-9, PHENOBARBITAL AND 5,6-BENZOFLAVONE, Method: STANDARD PLATE): inactive; negative
- mutagenic call (Test System: E. COLI, Strain/Indicator: WP2 UVRA (PKM101), Metabolic Activation: RAT LIVER S-9, PHENOBARBITAL AND 5,6-BENZOFLAVONE, Method: STANDARD PLATE): inactive; negative
